Data on 7 compounds can be found in ChEMBL document CHEMBL5725244, “IRE-1α inhibitors” (2016).

The term IC50 denotes the concentration that inhibits the measured activity by half.

Where only a bound is given, the exact number is not on record here.

The nature of this assay: Inhibition Assay: A fusion protein comprising glutathione S transferase (GST) and human IRE-1α (GST-IRE-1α) obtained from a 500 ml baculovirus-infected insect cell culture can be used to measure IRE-1α activity in vitro.Five ul of a reaction mixture comprising 1x reaction buffer (5x reaction buffer is 100 mM Hepes pH 7.5, 250 mM KOAc, 2.5 mM MgCl2), 3 mM DTT, and 0.4% polyethylene glycol water is added to each well of 384 well plates. Twenty-five nanoliters of a 1 mM test compound solution are added to test wells. Three ul of a 128 ng/ml IRE-1α preparation are added to each test well and to positive control wells (final concentration 5.82 ng/well). Negative control wells contain only reaction mixture and test compound.After spinning the plates at 1200 rpm for 30 seconds, 3 ul of an IRE-1α human mini-XBP-1 mRNA stem-loop substrate 5'-[…]-3' (SEQ ID NO:1), labeled with the fluorescent dye Cy5 at the 5' end and Black Hole Quencher 2 (BH2) at the 3' end, are added to each well of a control plate. The plates are again spun at 1200 rpm for 30 seconds. Final concentrations for the assay are: 63 nM IRE-1α substrate, 5.82 ng IRE-1α protein, and 2.5 uM test compound. The plates are covered with lids and incubated for one hour at 30° C. The plates are then transferred to an ACQUEST microplate reader. Data is analyzed using data analysis software, and the percent activity of IRE-1α is calculated.
`O=C(C1CCN(c2ccc3ccc(O)c(CO)c3c2)C1)N1CCCCC1` (configuration not stated): the IC50 is > 1000 nM.

As for `CN(Cc1ccccc1)C(=O)C1CCN(c2ccc3ccc(O)c(CO)c3c2)C1` (configuration not stated), the IC50 was > 1000 nM.

On to `CN1CCN(c2ccc3ccc(O)c(CO)c3c2)CC1`, for which the IC50 is > 1000 nM.

For the compound `CN(Cc1ccccc1)C1CCN(c2ccc3c(C=O)c(O)ccc3c2)C1` (configuration not stated), the half-maximal inhibitory concentration (IC50) is > 1000 nM.

As for `OCc1c(O)ccc2ccc(N3CCCC3)cc12`, the IC50 was > 1000 nM.

Consider `OCc1c(O)ccc2cc(N3CCOCC3)ccc12`, for which the 50% inhibitory concentration (IC50) is > 1000 nM.

As for `CN1CCN(C2CCN(c3ccc4ccc(O)c(CO)c4c3)C2)CC1` (configuration not stated), the IC50 is > 1000 nM.
